Results reported in patent publication US4189433A, “4-Hydroxy-1,2-benzisothiazoles and their manufacture” (BASF Aktiengesellschaft, priority 1977, dated 1980).

Key:
[1] = Stability to light and to air; type: physicochemical; conditions: compared to 7-amino-4-hydroxy-1,2-benzisothiazole
female Swiss mice = experiment: in vivo; conditions: mouse
Description: (§1) The acute toxicity was determined on groups of 10 or 20 female Swiss mice weighing 20-26 g, the compounds being administered intraperitoneally.

in vivo = conditions: mouse
Description: as §1

cardiac β1-receptors = target: T1, cardiac β1-receptors (Rattus norvegicus, UniProt P18090); experiment: β1-sympatholytic action: inhibition of Isoproterenol tachycardia in pithed rats; type: in vivo, rat (Sprague-Dawley; conditions: Propranolol = 1.00, intravenous
T1 construct: in pithed rats (Sprague-Dawley, Mus rattus; weight 230-280 g); from tissue; host or cells: heart in situ of pithed Sprague-Dawley rats (in vivo)
From the text: (§2) The following are examples of compounds of the general formula III and/or of their acid addition salts with a physiologically safe acid: 4-(2-hydroxy-3-isopropylamino-propoxy)-1,2-benzisothiazole (III), 4-(2-hydroxy-3-tert.-butylaminopropoxy)-1,2-benzisothiazole (IV), 4-[2-hydroxy-3-(3-methylpentyl-3-amino)-propoxy]-1,2-benzisothiazole (VII), 4-[2-hydroxy-3-(2-methyl-butyl-2-amino)-propoxy]-1,2-benzisothiazole (VI), 4-[2-hydroxy-3-(2-methyl-3-but-2-ynylamino)-propoxy]-1,2-benzisothiazole (VIII), 4-(2-hydroxy-3-sec.-butylaminopropoxy-1,2-benzisothiazole (V), 4-[2-hydroxy-3-(1-methoxy-propyl-2-amino)-propoxy]-1,2-benzisothiazole (IX) and 4-[2-hydroxy-3-(pentyl-2-amino)-propoxy]-1,2-benzisothiazole (X).

[2] = target: T2, β2-receptors on the blood vessels (Rattus norvegicus, UniProt P10608); experiment: β2-sympatholytic action: inhibition of Isoproterenol blood pressure reduction in rats under urethane narcosis; type: in vivo; conditions: for R.A. (relative activity), β2-sympatholytic action: Propranolol = 1.00; for R.A. (relative activity), β2-sympatholytic action / Q (footnote 6; numerically ED 50 β2 / ED 50 β1): intravenous; for Q (footnote 6; numerically ED 50 β2 / ED 50 β1): cardioselectivity quotient, rats
T2 construct: was tested on rats, weighing 230-280 g, under urethane narcosis; from tissue; host or cells: blood vessels in situ of urethane-anaesthetised rats (in vivo)
From the text: as §2

T1 sequence (P18090 whole entry): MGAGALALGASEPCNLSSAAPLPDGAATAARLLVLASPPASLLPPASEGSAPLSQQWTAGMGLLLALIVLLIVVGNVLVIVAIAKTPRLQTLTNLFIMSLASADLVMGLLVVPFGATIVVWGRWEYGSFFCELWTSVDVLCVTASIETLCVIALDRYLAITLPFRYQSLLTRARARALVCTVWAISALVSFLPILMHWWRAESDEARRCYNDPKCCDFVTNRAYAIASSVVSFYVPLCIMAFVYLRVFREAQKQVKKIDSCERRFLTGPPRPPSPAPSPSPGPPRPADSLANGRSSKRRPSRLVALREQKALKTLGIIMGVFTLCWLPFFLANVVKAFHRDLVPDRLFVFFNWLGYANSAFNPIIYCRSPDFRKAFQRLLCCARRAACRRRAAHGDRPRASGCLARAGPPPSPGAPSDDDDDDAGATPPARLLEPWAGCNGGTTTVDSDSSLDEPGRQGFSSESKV
T2 sequence (P10608 whole entry): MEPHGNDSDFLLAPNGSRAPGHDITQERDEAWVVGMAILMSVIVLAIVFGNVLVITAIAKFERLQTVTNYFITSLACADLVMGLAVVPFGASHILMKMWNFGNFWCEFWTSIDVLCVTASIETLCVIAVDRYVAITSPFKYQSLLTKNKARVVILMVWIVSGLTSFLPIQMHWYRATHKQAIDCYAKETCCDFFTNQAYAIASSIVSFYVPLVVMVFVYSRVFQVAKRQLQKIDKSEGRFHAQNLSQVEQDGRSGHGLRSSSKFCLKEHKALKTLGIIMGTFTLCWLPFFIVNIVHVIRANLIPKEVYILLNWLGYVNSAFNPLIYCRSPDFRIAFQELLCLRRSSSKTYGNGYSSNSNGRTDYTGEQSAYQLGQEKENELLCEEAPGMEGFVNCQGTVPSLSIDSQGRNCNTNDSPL

SMILES | stability to light and to air [1] | Therapeutic range, relative (female Swiss mice) | selectivity ratio (in vivo) | R.A. (relative activity), β1-sympatholytic action (cardiac β1-receptors) | R.A. (relative activity), β2-sympatholytic action ([2]; rats under urethane narcosis) | Q (footnote 6; numerically ED 50 β2 / ED 50 β1) [2] | reduction of the mean pressure of the carotid artery, average ([2]; Isoproterenol 0.215 μg/kg i.v., rats under urethane narcosis) [%]
CC(=O)Nc1ccc(OC(C)=O)c2cnsc12 [7-acetamino-4-acetoxy-1,2-benzisothiazole] | increased stability to light and to air | – | – | – | – | – | –
CC(C)NCC(O)COc1cccc2sncc12 (stereo not drawn) [Example III, 4-(2-hydroxy-3-isopropylamino-propoxy)-1,2-benzisothiazole] | – | 3.72 | 32700 | 6.47 | 2.71 | 2.21 | –
CC(C)(C)NCC(O)COc1cccc2sncc12 (stereo not drawn) [IV, 4-(2-hydroxy-3-tert.-butylaminopropoxy)-1,2-benzisothiazole] | – | 10.76 | 94500 | 7.55 | 2.84 | 2.47 | –
COCC(C)NCC(O)COc1cccc2sncc12 (stereo not drawn) [IX, 4-[2-hydroxy-3-(1-methoxy-propyl-2-amino)-propoxy]-1,2-benzisothiazole] | – | 3.11 | – | 2.48 | 0.26 | 8.90 | –
CC(C)NCC(O)c1ccc(O)c(O)c1 (stereo not drawn) [Isoproterenol, reference compound] | – | – | – | – | – | – | 30
CCC(C)NCC(O)COc1cccc2sncc12 (stereo not drawn) [V, 4-(2-Hydroxy-3-sec.-butylamino-propoxy)-1,2-benzisothiazole] | – | 7.18 | – | 8.04 | 1.08 | 6.93 | –
CCC(C)(C)NCC(O)COc1cccc2sncc12 (stereo not drawn) [VI, 4-[2-hydroxy-3-(2-methyl-butyl-2-amino)-propoxy]-1,2-benzisothiazole] | – | 8.92 | – | 6.68 | 1.38 | 4.48 | –
CCC(C)(CC)NCC(O)COc1cccc2sncc12 (stereo not drawn) [VII, 4-[2-hydroxy-3-(3-methylpentyl-3-amino)-propoxy]-1,2-benzisothiazole] | – | 4.44 | – | 3.75 | 0.94 | 3.69 | –
C#CC(C)(C)NCC(O)COc1cccc2sncc12 (stereo not drawn) [VIII, 4-[2-hydroxy-3-(2-methyl-3-but-2-ynylamino)-propoxy]-1,2-benzisothiazole] | – | 9.11 | – | 5.35 | 1.98 | 2.50 | –
CCCC(C)NCC(O)COc1cccc2sncc12 (stereo not drawn) [X, 4-[2-hydroxy-3-(pentyl-2-amino)-propoxy]-1,2-benzisothiazole] | – | 2.72 | – | 4.88 | 0.42 | 10.70 | –
